Source: patent publication US7968526B2, “Antisense oligonucleotides directed to ribonucleotide reductase R2 and uses thereof in the treatment of cancer” (Lorus Therapeutics Inc., priority 2003, dated 2011)

Experiment: Tissue distribution in the rat (CE method)
Assay type: in vivo
Description: The toxicokinetics and tissue distribution of SEQ ID NO:1 (and related oligonucleotide metabolites obtained from exonuclease-mediated chain shortening) were determined in rats and monkeys. In addition to investigating the pharmacokinetics and tissue distribution of SEQ ID NO:1, the purpose of the studies was to correlate adverse effects in the animal studies to the concentrations of SEQ ID NO:1 (and metabolites) in tissue and blood. A capillary electrophoresis (CE) method was used to measure the concentrations of SEQ ID NO:1 (and metabolites) in plasma and tissues.
The concentrations of SEQ ID NO:1 (and related n+1, n−1 to n−15 oligonucleotide metabolites) in the following rat and monkey tissues were measured by a validated CE method (Southwest Bio-Labs, Inc.): kidney, liver, spleen, heart, lung, bone marrow (rat), lymph nodes (monkey) and brain tissues. The tissue samples were collected from the designated animals as described in the 21-day toxicity studies: rats, administered bolus intravenous injections of SEQ ID NO:1 every other day at 2, 10, or 50 mg/kg; and monkeys administered SEQ ID NO:1 by continuous intravenous infusion at 2, 10, or 50 mg/kg/day.

[1] = 2 mg/kg bolus i.v. every other day, 4 hrs post first dose
[2] = 2 mg/kg bolus i.v. every other day, 4 hrs post last dose
[3] = 2 mg/kg bolus i.v. every other day, 48 hrs post first dose
[4] = 10 mg/kg bolus i.v. every other day, 4 hrs post first dose
[5] = 10 mg/kg bolus i.v. every other day, 4 hrs post last dose

Question: Which results are given for “5′-GGCTAAATCGCTCCACCAAG-3′ (all phosphorothioate, sugars by position and methylation of C not given here) [SEQ ID NO: 1, fully phosphorothioated antisense oligonucleotide that hybridizes to the coding region of R2 mRNA]”?
Answer: Rank order of tissue concentrations: kidney>liver>bone marrow>spleen>heart>lung; Mean Concentration SEQ ID NO: 1, Bone Marrow [1]: BDL (below detectable limits (1 μg/g rat; 0.2 μg/g monkey)); Mean Concentration SEQ ID NO: 1, Brain [1]: BDL (below detectable limits (1 μg/g rat; 0.2 μg/g monkey)); Mean Concentration SEQ ID NO: 1, Heart [1]: 0.8 µg/g; Mean Concentration SEQ ID NO: 1, Kidney [1]: 6.7 µg/g; Mean Concentration SEQ ID NO: 1, Liver [1]: 6.9 µg/g; Mean Concentration SEQ ID NO: 1, Lung [1]: BDL (below detectable limits (1 μg/g rat; 0.2 μg/g monkey)); Mean Concentration SEQ ID NO: 1, Spleen [1]: 1.0 µg/g; Mean Concentration total metabolites (n + 1 through n − 13), Bone Marrow [1]: BDL (below detectable limits (1 μg/g rat; 0.2 μg/g monkey)); Mean Concentration total metabolites (n + 1 through n − 13), Brain [1]: BDL (below detectable limits (1 μg/g rat; 0.2 μg/g monkey)); Mean Concentration total metabolites (n + 1 through n − 13), Heart [1]: 0.3 µg/g; Mean Concentration total metabolites (n + 1 through n − 13), Kidney [1]: 20.8 µg/g; Mean Concentration total metabolites (n + 1 through n − 13), Liver [1]: 16.9 µg/g; Mean Concentration total metabolites (n + 1 through n − 13), Lung [1]: BDL (below detectable limits (1 μg/g rat; 0.2 μg/g monkey)); Mean Concentration total metabolites (n + 1 through n − 13), Spleen [1]: 1.2 µg/g; Mean Concentration SEQ ID NO: 1, Bone Marrow [2]: 1.8 µg/g; Mean Concentration SEQ ID NO: 1, Brain [2]: BDL (below detectable limits (1 μg/g rat; 0.2 μg/g monkey)); Mean Concentration SEQ ID NO: 1, Heart [2]: BDL (below detectable limits (1 μg/g rat; 0.2 μg/g monkey)); Mean Concentration SEQ ID NO: 1, Kidney [2]: 28.0 µg/g; Mean Concentration SEQ ID NO: 1, Liver [2]: 13.8 µg/g; Mean Concentration SEQ ID NO: 1, Lung [2]: 0.9 µg/g; Mean Concentration SEQ ID NO: 1, Spleen [2]: 1.8 µg/g; Mean Concentration total metabolites (n + 1 through n − 13), Bone Marrow [2]: 3.8 µg/g; Mean Concentration total metabolites (n + 1 through n − 13), Brain [2]: BDL (below detectable limits (1 μg/g rat; 0.2 μg/g monkey)); Mean Concentration total metabolites (n + 1 through n − 13), Heart [2]: BDL (below detectable limits (1 μg/g rat; 0.2 μg/g monkey)); Mean Concentration total metabolites (n + 1 through n − 13), Kidney [2]: 122.8 µg/g; Mean Concentration total metabolites (n + 1 through n − 13), Liver [2]: 42.1 µg/g; Mean Concentration total metabolites (n + 1 through n − 13), Lung [2]: 0.2 µg/g; Mean Concentration total metabolites (n + 1 through n − 13), Spleen [2]: 6.5 µg/g; Mean Concentration SEQ ID NO: 1, Bone Marrow [3]: BDL (below detectable limits (1 μg/g rat; 0.2 μg/g monkey)); Mean Concentration SEQ ID NO: 1, Brain [3]: BDL (below detectable limits (1 μg/g rat; 0.2 μg/g monkey)); Mean Concentration SEQ ID NO: 1, Heart [3]: BDL (below detectable limits (1 μg/g rat; 0.2 μg/g monkey)); Mean Concentration SEQ ID NO: 1, Kidney [3]: 1.0 µg/g; Mean Concentration SEQ ID NO: 1, Liver [3]: BDL (below detectable limits (1 μg/g rat; 0.2 μg/g monkey)); Mean Concentration SEQ ID NO: 1, Lung [3]: BDL (below detectable limits (1 μg/g rat; 0.2 μg/g monkey)); Mean Concentration SEQ ID NO: 1, Spleen [3]: BDL (below detectable limits (1 μg/g rat; 0.2 μg/g monkey)); Mean Concentration total metabolites (n + 1 through n − 13), Bone Marrow [3]: BDL (below detectable limits (1 μg/g rat; 0.2 μg/g monkey)); Mean Concentration total metabolites (n + 1 through n − 13), Brain [3]: BDL (below detectable limits (1 μg/g rat; 0.2 μg/g monkey)); Mean Concentration total metabolites (n + 1 through n − 13), Heart [3]: BDL (below detectable limits (1 μg/g rat; 0.2 μg/g monkey)); Mean Concentration total metabolites (n + 1 through n − 13), Kidney [3]: 3.6 µg/g; Mean Concentration total metabolites (n + 1 through n − 13), Liver [3]: BDL (below detectable limits (1 μg/g rat; 0.2 μg/g monkey)); Mean Concentration total metabolites (n + 1 through n − 13), Lung [3]: BDL (below detectable limits (1 μg/g rat; 0.2 μg/g monkey)); Mean Concentration total metabolites (n + 1 through n − 13), Spleen [3]: BDL (below detectable limits (1 μg/g rat; 0.2 μg/g monkey)); Mean Concentration SEQ ID NO: 1, Bone Marrow [4]: 2.7 µg/g; Mean Concentration SEQ ID NO: 1, Brain [4]: BDL (below detectable limits (1 μg/g rat; 0.2 μg/g monkey)); Mean Concentration SEQ ID NO: 1, Heart [4]: 1.5 µg/g; Mean Concentration SEQ ID NO: 1, Kidney [4]: 31.1 µg/g; Mean Concentration SEQ ID NO: 1, Liver [4]: 19.7 µg/g; Mean Concentration SEQ ID NO: 1, Lung [4]: 1.6 µg/g; Mean Concentration SEQ ID NO: 1, Spleen [4]: 2.6 µg/g; Mean Concentration total metabolites (n + 1 through n − 13), Bone Marrow [4]: 3.5 µg/g; Mean Concentration total metabolites (n + 1 through n − 13), Brain [4]: BDL (below detectable limits (1 μg/g rat; 0.2 μg/g monkey)); Mean Concentration total metabolites (n + 1 through n − 13), Heart [4]: 4.2 µg/g; Mean Concentration total metabolites (n + 1 through n − 13), Kidney [4]: 88.1 µg/g; Mean Concentration total metabolites (n + 1 through n − 13), Liver [4]: 47.9 µg/g; Mean Concentration total metabolites (n + 1 through n − 13), Lung [4]: 2.3 µg/g; Mean Concentration total metabolites (n + 1 through n − 13), Spleen [4]: 7.8 µg/g; Mean Concentration SEQ ID NO: 1, Bone Marrow [5]: 3.6 µg/g; Mean Concentration SEQ ID NO: 1, Brain [5]: BDL (below detectable limits (1 μg/g rat; 0.2 μg/g monkey)); Mean Concentration SEQ ID NO: 1, Heart [5]: BDL (below detectable limits (1 μg/g rat; 0.2 μg/g monkey)); Mean Concentration SEQ ID NO: 1, Kidney [5]: 129.5 µg/g; Mean Concentration SEQ ID NO: 1, Liver [5]: 38.1 µg/g; Mean Concentration SEQ ID NO: 1, Lung [5]: 2.1 µg/g; Mean Concentration SEQ ID NO: 1, Spleen [5]: 3.2 µg/g
